From patent US20090106856A1, “Selection System for Wheat” (BASF PLANT SCIENCE GMBH, priority 2005, published 2009)

What was measured:
wheat callus = assay: Killing curve: callus growth and regeneration under constant selection pressure; format: cell-based, Triticum aestivum
Protocol: To define the sensitivity of wheat tissues during transformation when D-Serine and D-Alanine are present as selection agents regeneration experiments with immature embryos were designed. Immature embryos were immersed in PAWinf medium and subjected to all steps of callus induction, callus maintaining and regeneration in transformation protocol above.
Sensitivity of callus tissue under constant selection pressure were evaluated using range of concentrations: 0.5 mM, 1 mM, 3 mM, 5 mM, 10 mM, 25 mM, 50 mM. Experiments were performed in triplicates. Percentage of embryos forming embryos-genic callus was scored on PAW-4 regeneration medium. At the end of shoots elongation regeneration capacity of the calluses was scored as calluses regenerating shoots and number of shoots per callus.
Range of the tested concentrations 0.5-50 mM D-ser and D-ala are evaluated in replicating regeneration experiments. The effect of selective compounds is estimated during callus growth and shoots formation following transformation procedure on medium with D-serine and D-alanine (Table 4).

wheat in vitro shoots = assay: Killing curve: rooting of in vitro shoots; format: in vivo, Triticum aestivum
Description: […] The effect of selection agents was observed two and tree weeks later. Number of plantlets with growing roots and green leaves were scored.
In vitro regenerated shoots from media lacking the selection compounds were collected and transferred on medium for rooting (½ MS salts hormone free). Roots formation, growth of the shoots and leaves elongation was scored two and four weeks later after sub culturing of these shoots to the medium supplemented with D-amino acids (Table 5).

wheat immature embryos = assay: Killing curve: in vitro germination of immature embryos and seedling growth; format: in vivo, Triticum aestivum
Protocol: In order to establish effective concentrations of D-serine and D-alanine on inhibiting growth of tissue cultured wheat cells, a bioassay system using immature embryos was applied. Immature embryos 2 mm in length were dissected onto germination medium with the selection agents, and incubated at 27° C. in light. The number of germinated embryos with well-developed shoots and brunched shoots were scored after 14 days.
Immature embryos 2 mm in size were isolated from the sterilized caryopses. The embryos were cultured on PAW-5 hormone free medium for germination in dark. Seedlings growth on D-amino acid selection was observed after 2 weeks. Most of the embryos germinated but the seedlings growth was inhibited when roots emerge and the uptake of the selection compound was direct from the medium. The Lethal Dose (LD 100) for seedlings germination and growth was 1 mM concentration of both D-amino acids tested (Table 6). Seedlings derived from embryos isolated from the immature caryopsis without endosperms were susceptible to the selection in concentration higher than 1 mM (FIG. 8).

[1] = system: control seedlings (wheat); assay: Spraying of seedlings with D-serine; format: in vivo, Triticum aestivum; conditions: 5 days old control seedlings; 50-300 mM
Description: Unlike Arabidopsis (Ericson et al. 2004a), spraying of 5 days old control and trans-genic seedlings with D-serine was not efficient in wheat. […] Watering of the plants was also not sufficient. Since the uptake, mobility in soil and detoxification by microorganisms are all potential barriers for D-serine in the soil, the expectation of in soil selection seems bleak. Therefore, that the transgenic plants will use the products from detoxification of D-serine as an additional nitrogen supply was not fulfilled in soil.

N[C@H](CO)C(=O)O [D-serine]
regeneration capacity of the calli measured as number of regenerants per callus line (wheat callus; 0.5 mM): clear increase | number of calli regenerating plants reduced (wheat callus; 3 mM): 50% | Regeneration capacity of the calli reduced (wheat callus; 5 mM): 70% | Regenerated Embryogenic Lines (%) (wheat callus; Bobwhite, 0.5 mM): 83% | Regenerated Embryogenic Lines (%) (wheat callus; Bobwhite, 3 mM): 57% | Regenerated Embryogenic Lines (%) (wheat callus; Bobwhite, 5 mM): 32.5% | Regenerated Embryogenic Lines (%) (wheat callus; Bobwhite, 10 mM): 10% | Regenerated Embryogenic Lines (%) (wheat callus; Bobwhite, 15 mM): 6% | Regenerated Embryogenic Lines (%) (wheat callus; Bobwhite, 25 mM): 0% | Regenerated Embryogenic Lines (%) (wheat callus; Bobwhite, 50 mM): 0% | Regenerated Embryogenic Lines (%) (wheat callus; Canon, 0.5 mM): 84% | Regenerated Embryogenic Lines (%) (wheat callus; Canon, 3 mM): 56% | Regenerated Embryogenic Lines (%) (wheat callus; Canon, 5 mM): 23% | Regenerated Embryogenic Lines (%) (wheat callus; Canon, 10 mM): 6% | Regenerated Embryogenic Lines (%) (wheat callus; Canon, 15 mM): 3% | Regenerated Embryogenic Lines (%) (wheat callus; Canon, 25 mM): 0% | Regenerated Embryogenic Lines (%) (wheat callus; Canon, 50 mM): 0% | lethal dose (LD 100) for regeneration response of callus (wheat callus; tested in both varieties): 25 mM | root formation of non-transgenic shoots (wheat in vitro shoots; 5 mM): not able to form roots | Rooted Shoots (%) (wheat in vitro shoots; Bobwhite, 1 mM): 64% | Rooted Shoots (%) (wheat in vitro shoots; Bobwhite, 3 mM): 24% | Rooted Shoots (%) (wheat in vitro shoots; Bobwhite, 5 mM): 3% | Rooted Shoots (%) (wheat in vitro shoots; Bobwhite, 10 mM): 0% | Rooted Shoots (%) (wheat in vitro shoots; Bobwhite, 15 mM): 0% | Rooted Shoots (%) (wheat in vitro shoots; Bobwhite, 25 mM): 0% | Rooted Shoots (%) (wheat in vitro shoots; Canon, 1 mM): 56% | Rooted Shoots (%) (wheat in vitro shoots; Canon, 3 mM): 16% | Rooted Shoots (%) (wheat in vitro shoots; Canon, 5 mM): 2% | Rooted Shoots (%) (wheat in vitro shoots; Canon, 10 mM): 0% | Rooted Shoots (%) (wheat in vitro shoots; Canon, 15 mM): 0% | Rooted Shoots (%) (wheat in vitro shoots; Canon, 25 mM): 0% | In vitro germination, Immature Embryos (%) (wheat immature embryos; Bobwhite, 0.5 mM): 46% | In vitro germination, Immature Embryos (%) (wheat immature embryos; Bobwhite, 1 mM): 0% | In vitro germination, Immature Embryos (%) (wheat immature embryos; Bobwhite, 5 mM): 0% | In vitro germination, Immature Embryos (%) (wheat immature embryos; Bobwhite, 10 mM): 0% | In vitro germination, Immature Embryos (%) (wheat immature embryos; Canon, 0.5 mM): 34% | In vitro germination, Immature Embryos (%) (wheat immature embryos; Canon, 1 mM): 0% | In vitro germination, Immature Embryos (%) (wheat immature embryos; Canon, 5 mM): 0% | In vitro germination, Immature Embryos (%) (wheat immature embryos; Canon, 10 mM): 0% | toxicity symptoms after spraying [1]: not sufficient to elicit toxicity symptoms
